Laboratory results taken from BindingDB's records for doi:10.1016/j.bmcl.2016.09.067 (Amgen, 2016).

Columns and labels:
[1] = biological target: Serine/threonine-protein kinase pim-2 (Homo sapiens, UniProt Q9P1W9); assay: Inhibition of recombinant Pim2 (unknown origin) by electrochemiluminescence assay
[2] = biological target: Serine/threonine-protein kinase pim-1 (Homo sapiens, UniProt P11309); assay: Inhibition of recombinant Pim1 (unknown origin) by electrochemiluminescence assay
Serine/threonine-protein kinase pim-1, sequence (P11309 whole entry): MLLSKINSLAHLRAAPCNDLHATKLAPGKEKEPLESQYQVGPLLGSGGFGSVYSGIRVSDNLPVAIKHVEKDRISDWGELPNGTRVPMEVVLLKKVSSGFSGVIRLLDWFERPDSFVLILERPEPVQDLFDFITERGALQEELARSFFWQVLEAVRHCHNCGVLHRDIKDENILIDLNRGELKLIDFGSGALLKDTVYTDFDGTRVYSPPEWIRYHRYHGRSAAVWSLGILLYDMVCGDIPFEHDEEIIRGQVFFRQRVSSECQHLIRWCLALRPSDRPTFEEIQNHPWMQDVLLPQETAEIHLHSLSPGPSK

Serine/threonine-protein kinase pim-2, sequence (Q9P1W9 whole entry): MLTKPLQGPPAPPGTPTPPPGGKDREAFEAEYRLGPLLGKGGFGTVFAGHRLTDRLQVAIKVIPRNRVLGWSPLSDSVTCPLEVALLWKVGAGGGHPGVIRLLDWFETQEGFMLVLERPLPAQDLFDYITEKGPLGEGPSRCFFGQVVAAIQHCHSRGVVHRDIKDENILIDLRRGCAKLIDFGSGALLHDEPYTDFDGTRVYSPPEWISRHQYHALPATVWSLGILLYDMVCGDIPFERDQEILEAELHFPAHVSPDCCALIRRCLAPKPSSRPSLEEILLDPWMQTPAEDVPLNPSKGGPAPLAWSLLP

Row | SMILES | IC50 [1] | IC50 [2]
1 | N[C@H]1CCN(c2ccncc2Nc2ncc3ccc(-c4c(F)cccc4F)nn23)C1 [US9187486, 13] | > 1 µM | –
2 | N[C@H]1CCCN(c2cnccc2Nc2ncc3ccc(-c4c(F)cccc4F)nn23)C1 [US9187486, 80] | > 1 µM | > 1 µM
